From US9708308B2, “Factor IXa inhibitors” (Merck Sharp & Dohme Corp., priority 2012, dated 2017)

target: Factor IXa (Homo sapiens, UniProt P00740); experiment: Determination of inhibitory activity against Factor IXa (cleavage of fluorescent peptide substrate); type: biochemical; conditions: cleavage of fluorescent peptide CH3SO2-D-CHG-Gly-Arg-AFC, release of AFC; read-out: FIXa IC50
Procedure, shortened: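 Factor IXa activity followed via cleavage of CH3SO2-D-CHG-Gly-Arg-AFC, releasing AFC. Fluorescence read at excitation 405 nm, emission 510 nm.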

Factor IXa, sequence (P00740 227-461 limits assumed): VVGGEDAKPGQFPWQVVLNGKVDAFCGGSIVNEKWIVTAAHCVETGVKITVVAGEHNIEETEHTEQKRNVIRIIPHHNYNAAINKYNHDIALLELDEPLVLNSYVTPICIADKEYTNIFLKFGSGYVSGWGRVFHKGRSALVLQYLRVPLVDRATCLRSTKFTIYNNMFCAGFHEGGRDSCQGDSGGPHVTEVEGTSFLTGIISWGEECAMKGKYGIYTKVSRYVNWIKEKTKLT
Factor IXa, sequence (P00740 47-191 partner limits assumed): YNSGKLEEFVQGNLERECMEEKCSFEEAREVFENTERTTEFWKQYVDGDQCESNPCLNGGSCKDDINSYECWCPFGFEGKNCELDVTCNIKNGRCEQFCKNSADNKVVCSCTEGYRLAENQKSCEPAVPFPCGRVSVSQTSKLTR

In order of falling IC50:
1. C[C@](O)(C(=O)Nc1ccc(CN)c(F)c1)[C@H]1OCCN(c2ccn(-c3ccncc3)n2)C1=O [Example 151, (R)—N-(4-(aminomethyl)-3-fluorophenyl)-2-hydroxy-2-((R)-3-oxo-4-(1-(pyridin-4-yl)-1H-pyrazol-3-yl)morpholin-2-yl)propanamide]  70 nM
2. C[C@](O)(C(=O)Nc1ccc(CN)cc1)[C@H]1OCCN(c2ccn(-c3ccncc3)n2)C1=O [Example 150, (R)—N-(4-(aminomethyl)phenyl)-2-hydroxy-2-((R)-3-oxo-4-(1-(pyridin-4-yl)-1H-pyrazol-3-yl)morpholin-2-yl)propanamide]  66.2 nM
3. C[C@H]1CN(c2nn(-c3ccnnc3)cc2F)C(=O)[C@@H]([C@@H](O)C(=O)Nc2ccc3c(N)noc3c2)O1 [Example 161, (R)—N-(3-aminobenzo[d]isoxazol-6-yl)-2-((2R,6S)-4-(4-fluoro-1-(pyridazin-4-yl)-1H-pyrazol-3-yl)-6-methyl-3-oxomorpholin-2-yl)-2-hydroxyacetamide]  32.3 nM
4. COc1cc(-n2ccc(N3C[C@H](C)O[C@H]([C@@H](O)C(=O)Nc4ccc5c(N)noc5c4)C3=O)n2)ccn1 [Example 167, (R)—N-(3-aminobenzo[d]isoxazol-6-yl)-2-hydroxy-2-((2R,6S)-4-(1-(2-methoxypyridin-4-yl)-1H-pyrazol-3-yl)-6-methyl-3-oxomorpholin-2-yl)acetamide]  17.8 nM
5. C[C@]1([C@@H](O)C(=O)Nc2ccc(CN)c(F)c2)OCCN(c2ccn(-c3ccncc3)n2)C1=O [Example 153, (R)—N-(4-(aminomethyl)-3-fluorophenyl)-2-hydroxy-2-((R)-2-methyl-3-oxo-4-(1-(pyridin-4-yl)-1H-pyrazol-3-yl)morpholin-2-yl)acetamide]  12.7 nM
6. C[C@H]1CN(c2ccn(-c3ccncc3)n2)C(=O)[C@@H]([C@@H](O)C(=O)Nc2ccc3c(N)noc3c2)O1 [Example 163, (R)—N-(3-aminobenzo[d]isoxazol-6-yl)-2-hydroxy-2-((2R,6S)-6-methyl-3-oxo-4-(1-(pyridin-4-yl)-1H-pyrazol-3-yl)morpholin-2-yl)acetamide]  11.3 nM
7. C[C@]1([C@@H](O)C(=O)Nc2ccc(CN)cc2)OCCN(c2ccn(-c3ccncc3)n2)C1=O [Example 152, (R)—N-(4-(aminomethyl)phenyl)-2-hydroxy-2-((R)-2-methyl-3-oxo-4-(1-(pyridin-4-yl)-1H-pyrazol-3-yl)morpholin-2-yl)acetamide]  9.69 nM
8. C[C@H]1CN(c2ccn(-c3ccnc(C(F)(F)F)c3)n2)C(=O)[C@@H]([C@@H](O)C(=O)Nc2ccc3c(N)noc3c2)O1 [Example 169, (R)—N-(3-aminobenzo[d]isoxazol-6-yl)-2-hydroxy-2-((2R,6S)-6-methyl-3-oxo-4-(1-(2-(trifluoromethyl)pyridin-4-yl)-1H-pyrazol-3-yl)morpholin-2-yl)acetamide]  8.99 nM
9. COc1cc(-n2ccc(N3C[C@@H](C)O[C@H]([C@@H](O)C(=O)Nc4ccc5c(N)noc5c4)C3=O)n2)ccn1 [Example 168, (R)—N-(3-aminobenzo[d]isoxazol-6-yl)-2-hydroxy-2-((2R,6R)-4-(1-(2-methoxypyridin-4-yl)-1H-pyrazol-3-yl)-6-methyl-3-oxomorpholin-2-yl)acetamide]  5.85 nM
10. C[C@H]1CN(c2ccn(-c3ccnc(C#N)c3)n2)C(=O)[C@@H]([C@@H](O)C(=O)Nc2ccc3c(N)noc3c2)O1 [Example 164, (R)—N-(3-aminobenzo[d]isoxazol-6-yl)-2-((2R,6S)-4-(1-(2-cyanopyridin-4-yl)-1H-pyrazol-3-yl)-6-methyl-3-oxomorpholin-2-yl)-2-hydroxyacetamide]  5.68 nM
11. C[C@@H]1CN(c2nn(-c3ccnnc3)cc2F)C(=O)[C@@H]([C@@H](O)C(=O)Nc2ccc3c(N)noc3c2)O1 [Example 158, (R)—N-(3-aminobenzo[d]isoxazol-6-yl)-2-((2R,6R)-4-(4-fluoro-1-(pyridazin-4-yl)-1H-pyrazol-3-yl)-6-methyl-3-oxomorpholin-2-yl)-2-hydroxyacetamide]  4.4 nM
12. C[C@@H]1CN(c2ccn(-c3ccncc3)n2)C(=O)[C@@H]([C@@H](O)C(=O)Nc2ccc3c(N)noc3c2)O1 [Example 166, (R)—N-(3-aminobenzo[d]isoxazol-6-yl)-2-hydroxy-2-((2R,6R)-6-methyl-3-oxo-4-(1-(pyridin-4-yl)-1H-pyrazol-3-yl)morpholin-2-yl)acetamide]  3.37 nM
13. COc1cc(-n2ccc(N3C[C@H](C)O[C@H]([C@@H](O)C(=O)Nc4ccc5c(N)noc5c4)C3=O)n2)cnn1 [Example 162, (R)—N-(3-aminobenzo[d]isoxazol-6-yl)-2-hydroxy-2-((2R,6S)-4-(1-(6-methoxypyridazin-4-yl)-1H-pyrazol-3-yl)-6-methyl-3-oxomorpholin-2-yl)acetamide]  2.61 nM
14. C[C@H]1CN(c2ccn(-c3ccnnc3)n2)C(=O)[C@@H]([C@@H](O)C(=O)Nc2ccc3c(N)noc3c2)O1 [Example 160, (R)—N-(3-aminobenzo[d]isoxazol-6-yl)-2-hydroxy-2-((2R,6S)-6-methyl-3-oxo-4-(1-(pyridazin-4-yl)-1H-pyrazol-3-yl)morpholin-2-yl)acetamide]  2.27 nM
15. COc1cc(-n2ccc(N3C[C@@H](C)O[C@H]([C@@H](O)C(=O)Nc4ccc5c(N)noc5c4)C3=O)n2)cnn1 [Example 159, (R)—N-(3-aminobenzo[d]isoxazol-6-yl)-2-hydroxy-2-((2R,6R)-4-(1-(6-methoxypyridazin-4-yl)-1H-pyrazol-3-yl)-6-methyl-3-oxomorpholin-2-yl)acetamide]  2.26 nM
16. C[C@@H]1CN(c2ccn(-c3cnnc(C#N)c3)n2)C(=O)[C@@H]([C@@H](O)C(=O)Nc2ccc3c(N)noc3c2)O1 [Example 154, (R)—N-(3-Aminobenzo[d]isoxazol-6-yl)-2-((2R,6R)-4-(1-(6-cyanopyridazin-4-yl)-1H-pyrazol-3-yl)-6-methyl-3-oxomorpholin-2-yl)-2-hydroxyacetamide]  1.98 nM
17. C[C@@H]1CN(c2ccn(-c3ccnc(C#N)c3)n2)C(=O)[C@@H]([C@@H](O)C(=O)Nc2ccc3c(N)noc3c2)O1 [Example 165, (R)—N-(3-aminobenzo[d]isoxazol-6-yl)-2-((2R,6R)-4-(1-(2-cyanopyridin-4-yl)-1H-pyrazol-3-yl)-6-methyl-3-oxomorpholin-2-yl)-2-hydroxyacetamide]  1.98 nM
18. C[C@H]1CN(c2ccn(-c3cnnc(C#N)c3)n2)C(=O)[C@@H]([C@@H](O)C(=O)Nc2ccc3c(N)noc3c2)O1 [Example 155, (R)—N-(3-Aminobenzo[d]isoxazol-6-yl)-2-((2R,6S)-4-(1-(6-cyanopyridazin-4-yl)-1H-pyrazol-3-yl)-6-methyl-3-oxomorpholin-2-yl)-2-hydroxyacetamide]  1.96 nM
19. CC1(C)CN(c2ccn(-c3cnnc(C#N)c3)n2)C(=O)[C@@H]([C@@H](O)C(=O)Nc2ccc3c(N)noc3c2)O1 [Example 156, (R)—N-(3-Aminobenzo[d]isoxazol-6-yl)-2-((R)-4-(1-(6-cyanopyridazin-4-yl)-1H-pyrazol-3-yl)-6,6-dimethyl-3-oxomorpholin-2-yl)-2-hydroxyacetamide]  1.68 nM
20. C[C@@H]1CN(c2ccn(-c3ccnnc3)n2)C(=O)[C@@H]([C@@H](O)C(=O)Nc2ccc3c(N)noc3c2)O1 [Example 157, (R)—N-(3-aminobenzo[d]isoxazol-6-yl)-2-hydroxy-2-((2R,6R)-6-methyl-3-oxo-4-(1-(pyridazin-4-yl)-1H-pyrazol-3-yl)morpholin-2-yl)acetamide]  1.34 nM
